Data set [1] deals with SD rats. The data set can be described thus: SD rat chronic constriction injury (CCI) model. In kind it is in vivo. The following applies: mechanical pain threshold 1, 2, 4 h post-administration, compound 8 single subcutaneous injection. From the text:
This model involves the use of a non-absorbable 5-0 suture to loosely ligate the sciatic nerve, causing slight compression of its outer sheath. Mechanical compression by the suture induces axonal damage, leading to abnormal discharge. Additionally, the local stimulation from the ligature induces the release of inflammatory mediators.
Furthermore, CCI selectively damages the larger myelinated fibers of the sciatic nerve while preserving most of the unmyelinated C fibers responsible for transmitting pain.
After initial screening, rats are sequentially numbered and randomly assigned to groups based on the numbering, using a random grouping method. Experimental groups are established based on trial conditions.

The nature of data set [2]: Metabolic stability in liver microsomes (human). Type of data set: in vitro ADME. The method, then: Buffers A-C were prepared for use in the metabolic study. The buffers were as follows: Buffer A: 1.0 L of 0.1 M monobasic Potassium Phosphate buffer containing 1.0 mM EDTA; Buffer B: 1.0 L of 0.1 M Dibasic Potassium Phosphate buffer containing 1.0 mM EDTA; and Buffer C: 0.1 M Potassium Phosphate buffer, 1.0 mM EDTA, pH 7.4 by titrating 700 mL of buffer B with buffer A while monitoring with the pH meter.
Ketanserin was used as the reference compound. Reference compound and test compound spiking solutions (500 μM spiking solution) were prepared by adding 10 μL of 10 mM DMSO stock solution into 190 μL ACN. 1.5 μL of 500 μM spiking solution (0.75 mg/mL) and 18.75 μL of 20 mg/mL liver microsomes were added into 479.75 μL of Buffer C on ice.
A 6 mM NADPH stock solution was prepared by dissolving an appropriate amount of NADPH into buffer C. 30 μL of 1.5 μM spiking solution containing 0.75 mg/mL microsomes solution was dispensed to the assay plates designated for different time points (0-, 5-, 15-, 30-, 45-min) on ice. […] All the other plates were pre-incubated at 37° C. for 5 minutes. 15 μL of 6 mM NADPH stock solution was added to the plates to start the reaction and time. At 5-min, 15-min, 30-min, and 45-min, 135 μL of ACN containing internal standard were added to the wells of corresponding plates, respectively, to stop the reaction. […]
(In general: Microsomes from liver hold many membrane-bound enzymes, among them those of drug oxidation.)

A short description of data set [3]: Hepatocyte stability. The following applies: rat, hepatocytes.
Protocol: Vials with hepatocytes were removed from a liquid nitrogen storage unit and immediately placed in a 37±1° C. shaking water bath for 2 min±15 sec. The hepatocytes were poured into 50 mL of hepatocytes thawing medium, mixed gently, and centrifuged at 500 rpm for 3 minutes. After centrifugation, the supernatant was carefully aspirated without disturbing the pellet. 10× the volume of pre-warmed KHB buffer (Krebs-Henseleit buffer, Sigma Cat #K3753-10X1L) with 5.6 g/L HEPES was used to resuspend the cell pellet. The pellet mixture was centrifuged at 500 rpm for 3 minutes, aspirated, and the supernatant discarded without disturbing the cell pellet. The cell viability and yield were determined. The hepatocytes were counted, and the cell suspensions were diluted to the appropriate cell density. The viable cell density was 2×10^6 cells/mL. The hepatocyte solution was placed on ice until it was used.
Two dosing solutions of prewarmed KHB (1% DMSO) were prepared. 200 μM spiking solution was prepared by adding 20 μL of substrates stock solution (10 mM) into 980 μL of DMSO. Two dosing solutions were prepared by adding 10 μL of 200 μM spiking solution into 990 μL of KHB (2 μM after dilution). The dosing solution was centrifuged at 5594 g for 15 min (Thermo Multifuge×3R). 50 μL of pre-warmed 2×dosing solution was added to the wells designated for the different time points. […] After the addition of the hepatocytes, the timer was started. The assay was placed in an incubator at 37° C. 100 μL of ACN containing IS was added to the wells designed for 0 min, the wells were mixed gently, then 50 μL of pre-warmed hepatocytes solution (2×10^6 cells/mL) was added. The wells were sealed. […] Next, the wells were sealed. After quenching, the plates were shaken on a vibrator (IKA, MTS 2/4) for 10 min at 600 rpm. The plate was sonicated for 2 min and centrifuged at 5594 g for 15 min (Thermo Multifuge×3R). 50 μL of the supernatant was transferred from each well into a 96-well sample plate containing 50 μL of ultra pure water (Millipore, ZMQS50F01) for LC/MS analysis.

By CLint scaled is commonly meant the capacity of the preparation to metabolise the compound, expressed as a volume cleared per time. The low end stands for slow turnover, the high end for rapid turnover. Take `CC(C)(NC(=O)[C@H]1[C@@H]2CNC[C@H]1C2)c1ncc2c(Br)cccn12` [Compound 8, (1R,5S,6r)-N-(2-(8-bromoimidazo[1,5-a]pyridin-3-yl)propan-2-yl)-3-azabicyclo[3.1.1]heptane-6-carboxamide]: the “Effect on neuropathic pain in CCI model” value in data set [1] was “significantly affected the SD rat CCI model”. The compound further came in with an intrinsic metabolic clearance (CLint scaled) at 1 μM in data set [2] (pH 7.4) of 29.5 mL/min/kg. Also, the half-life at 1 μM in data set [2] (pH 7.4, read-out: Metabolic stability T½) amounted to 84.1 min.
Take `CC(C)(NC(=O)[C@H]1[C@@H]2CNC[C@H]1C2)c1nc(C2CC2)c2ccccn12` [Compound 9, (1R,5S,6r)-N-(2-(1-cyclopropylimidazo[1,5-a]pyridin-3-yl)propan-2-yl)-3-azabicyclo[3.1.1]heptane-6-carboxamide]: in data set [3], the CLint scaled at 1 μM amounted to 3.17 mL/min/kg and the half-life at 1 μM amounted to 1020 min.

For the origin of these results see patent publication US20240174693A1, “SOMATOSTATIN RECEPTOR SUBTYPE 4 (SSTR4) AGONISTS AND THEIR APPLICATIONS” (Humanwell Pharmaceutical US, priority 2022, published 2024).
